Values after ≈ are worked out from the molar mass of the structure shown. Where two headings read alike, the source gives them in different places.
Columns and labels:
[1] = test system: A. baumannii MDR isolates; experiment: Single-step spontaneous mutation frequency; type: cell-based, Acinetobacter baumannii
Method: Molten Mueller–Hinton agar (19 ml) supplemented with 20% human serum was added to 1 ml of compound at 20× the final concentration, poured immediately into Petri dishes (100 mm diameter) and gently mixed. Then, 2–3 colonies from agar plates were inoculated into CAMHB and incubated overnight under shaking (150 rpm). […] The agar plates were incubated aerobically at 35 ± 2 °C.

A. baumannii ACC01073 [2] = experiment: Neutropaenic mouse lung infection (pneumonia) model; type: in vivo; conditions: for CFU/lungs, average / Log CFU/lungs, average (bacterial load): n = 6
Method: An intramuscular inoculation of a bacterial suspension of approximately 10^6 CFU per thigh was used to induce the infection. Treatment started 2 h after infection. […] Thigh bacterial burden was determined after 24 h of treatment. In the pneumonia model, an intratracheal inoculation of approximately 10^7 CFU per lung was used to induce the infection. Treatment started 2 h after infection. […] Lung bacterial burden was determined after 24 h treatment. Standard of care antibiotic was tested at a single dose in both infection models. GraphPad Prism 8 was used for graphical presentation and to analyse data.

Aqueous solubility = type: physicochemical; conditions: pH 1–9
[3] = test system: A. baylyi ADP1 (ATCC 33305); experiment: MIC of constructed lptF mutants in LB, OD600; type: cell-based, Acinetobacter baylyi
Method: (§1) MIC determinations were performed using the broth microdilution method and in line with CLSI guidelines M07 and M100 (refs. [37],[38]). Bacterial inocula were prepared by diluting a 0.5 McFarland suspension in CAMHB or lysogeny broth (LB) specifically for A. baylyi isolates. […] MIC values of all of the tested antibiotics were read as the lowest compound concentration inhibiting bacterial growth by naked eye or beyond which the OD600 ceased to decrease.
Culture, genetic manipulation and MIC measurements of A. baylyi ADP1 were conducted according to previously reported procedures[56],[57].

A. baumannii ACC01073 [4] = experiment: Time–kill kinetics; type: cell-based, Acinetobacter baumannii
Method: Time–kill studies were performed according to the CLSI standard procedure M26-A[40]. […] A. baumannii colonies from agar plates were inoculated into CAMHB supplemented with 20% human serum and incubated overnight at 35 ± 2 °C in ambient air under shaking. The overnight culture was diluted 1:10,000 and further incubated for 2 h. A total of 5 ml of the bacterial log-phase suspension was transferred into six-well plates. […] The six-well plates were incubated at 35 ± 2 °C in ambient air under shaking (100 rpm) for 24 h, 150 μl was withdrawn at the selected timepoints (0, 2, 4, 8, 12, 16, 20 and 24 h), diluted, plated on a Mueller–Hinton agar plate and incubated overnight for CFU determination. GraphPad Prism v.8 was used for graphical presentation of the data.

P. aeruginosa = experiment: MIC versus efflux impaired and porin deficient strains; type: cell-based, Pseudomonas aeruginosa
Method: as §1

E. coli = experiment: as above; type: cell-based; conditions: Escherichia coli
Method: as §1

CN1C(=O)[C@H](CCCCN)NC(=O)[C@H](CCCN)NCc2cccnc2Sc2cccc(-c3ccc(C(=O)O)cc3)c2CNC(=O)[C@@H]1Cc1c[nH]c2ccccc12 [zosurabalpin]
PROPORTION_R ([1]; A. baumannii ACC00445, inoculum 3.30E+08, selection 2xMIC, 0.5 ug/ml): 1.70E-07 | PROPORTION_R ([1]; A. baumannii ACC00445, inoculum 3.30E+08, selection 4xMIC, 1 ug/ml): 6.50E-08 | PROPORTION_R ([1]; A. baumannii ACC00445, inoculum 3.30E+08, selection 8xMIC, 2 ug/ml): 3.10E-09 | PROPORTION_R ([1]; A. baumannii ACC00445, inoculum 3.30E+08, selection 16xMIC, 4 ug/ml): <3.1E-09 | PROPORTION_R ([1]; A. baumannii ACC00535, inoculum 3.50E+08, selection 4xMIC, 0.5 ug/ml): 1.50E-07 | PROPORTION_R ([1]; A. baumannii ACC00535, inoculum 3.50E+08, selection 8xMIC, 1 ug/ml): 8.90E-08 | PROPORTION_R ([1]; A. baumannii ACC00535, inoculum 3.50E+08, selection 16xMIC, 2 ug/ml): <2.9E-09 | PROPORTION_R ([1]; A. baumannii ACC01073, inoculum 2.80E+08, selection 2xMIC, 2 ug/ml): 1.10E-08 | PROPORTION_R ([1]; A. baumannii ACC01073, inoculum 2.80E+08, selection 4xMIC, 4 ug/ml): 7.30E-09 | PROPORTION_R ([1]; A. baumannii ACC01073, inoculum 2.80E+08, selection 8xMIC, 8 ug/ml): <3.6E-09 | PROPORTION_R ([1]; A. baumannii ACC01073, inoculum 2.80E+08, selection 16xMIC, 16 ug/ml): <3.6E-09 | PROPORTION_R ([1]; A. baumannii ACC01077, inoculum 2.80E+08, selection 2xMIC, 0.5 ug/ml): 3.60E-09 | PROPORTION_R ([1]; A. baumannii ACC01077, inoculum 2.80E+08, selection 4xMIC, 1 ug/ml): <3.6E-09 | PROPORTION_R ([1]; A. baumannii ACC01077, inoculum 2.80E+08, selection 8xMIC, 2 ug/ml): <3.6E-09 | PROPORTION_R ([1]; A. baumannii ACC01077, inoculum 2.80E+08, selection 16xMIC, 4 ug/ml): <3.6E-09 | PROPORTION_R ([1]; A. baumannii ACC01085_CDC AR307, inoculum 5.50E+08, selection 2xMIC, 0.5 ug/ml): 1.10E-06 | PROPORTION_R ([1]; A. baumannii ACC01085_CDC AR307, inoculum 5.50E+08, selection 4xMIC, 1 ug/ml): <1.8E-09 | PROPORTION_R ([1]; A. baumannii ATCC BAA-747, inoculum 7.50E+07, selection 8xMIC, 0.5 ug/ml): <1.3E-08 | PROPORTION_R ([1]; A. baumannii ATCC BAA-747, inoculum 7.50E+07, selection 16xMIC, 1 ug/ml): <1.3E-08 | PROPORTION_R ([1]; A. baumannii ROB08706, inoculum 5.00E+07, selection 2xMIC, 2 ug/ml): 4.00E-08 | PROPORTION_R ([1]; A. baumannii ROB08706, inoculum 5.00E+07, selection 4xMIC, 4 ug/ml): 6.00E-08 | PROPORTION_R ([1]; A. baumannii ROB08706, inoculum 5.00E+07, selection 8xMIC, 8 ug/ml): <2.0E-08 | PROPORTION_R ([1]; A. baumannii ROB08706, inoculum 5.00E+07, selection 16xMIC, 16 ug/ml): <2.0E-08 | PROPORTION_R ([1]; A. baumannii ROB08708, inoculum 2.40E+08, selection 4xMIC, 0.5 ug/ml): 1.10E-07 | PROPORTION_R ([1]; A. baumannii ROB08708, inoculum 2.40E+08, selection 8xMIC, 1 ug/ml): <4.2E-09 | PROPORTION_R ([1]; A. baumannii ROB08708, inoculum 2.40E+08, selection 16xMIC, 2 ug/ml): <4.2E-09 | Single-step spontaneous mutation frequency ([1]; ACC00445, 2× MIC): 2 × 10^−7 | Single-step spontaneous mutation frequency ([1]; ACC00445, 4× MIC): 7 × 10^−8 | Single-step spontaneous mutation frequency ([1]; ACC00445, 8× MIC): 3 × 10^−9 | Single-step spontaneous mutation frequency ([1]; ACC00445, 16× MIC): <3 × 10^−9 | Single-step spontaneous mutation frequency ([1]; ACC00535, 2× MIC): 2 × 10^−7 | Single-step spontaneous mutation frequency ([1]; ACC00535, 4× MIC): 2 × 10^−7 | Single-step spontaneous mutation frequency ([1]; ACC00535, 8× MIC): 9 × 10^−8 | Single-step spontaneous mutation frequency ([1]; ACC00535, 16× MIC): <3 × 10^−9 | Single-step spontaneous mutation frequency ([1]; ACC01073, 2× MIC): 1 × 10^−8 | Single-step spontaneous mutation frequency ([1]; ACC01073, 4× MIC): 7 × 10^−9 | Single-step spontaneous mutation frequency ([1]; ACC01073, 8× MIC): <4 × 10^−9 | Single-step spontaneous mutation frequency ([1]; ACC01073, 16× MIC): <4 × 10^−9 | Single-step spontaneous mutation frequency ([1]; ACC01077, 2× MIC): 4 × 10^−9 | Single-step spontaneous mutation frequency ([1]; ACC01077, 4× MIC): <4 × 10^−9 | Single-step spontaneous mutation frequency ([1]; ACC01077, 8× MIC): <4 × 10^−9 | Single-step spontaneous mutation frequency ([1]; ACC01077, 16× MIC): <4 × 10^−9 | Single-step spontaneous mutation frequency ([1]; ACC01085/AR0307, 2× MIC): 1 × 10^−6 | Single-step spontaneous mutation frequency ([1]; ACC01085/AR0307, 4× MIC): <2 × 10^−9 | Single-step spontaneous mutation frequency ([1]; ATCC BAA-747, 2× MIC): 2 × 10^−7 | Single-step spontaneous mutation frequency ([1]; ATCC BAA-747, 4× MIC): <1 × 10^−8 | Single-step spontaneous mutation frequency ([1]; ATCC BAA-747, 8× MIC): <1 × 10^−8 | Single-step spontaneous mutation frequency ([1]; ATCC BAA-747, 16× MIC): <1 × 10^−8 | Single-step spontaneous mutation frequency ([1]; ROB08706, 2× MIC): 4 × 10^−8 | Single-step spontaneous mutation frequency ([1]; ROB08706, 4× MIC): 6 × 10^−8 | Single-step spontaneous mutation frequency ([1]; ROB08706, 8× MIC): <2 × 10^−8 | Single-step spontaneous mutation frequency ([1]; ROB08706, 16× MIC): <2 × 10^−8 | Single-step spontaneous mutation frequency ([1]; ROB08708, 2× MIC): 2 × 10^−7 | Single-step spontaneous mutation frequency ([1]; ROB08708, 4× MIC): 1 × 10^−7 | Single-step spontaneous mutation frequency ([1]; ROB08708, 8× MIC): <4 × 10^−9 | Single-step spontaneous mutation frequency ([1]; ROB08708, 16× MIC): <4 × 10^−9 | ΔLog CFU/lungs vs A/0h (A. baumannii ACC01073 [2]; 6 mg/kg/day s.c. q6h, 24 h): 1.37 | CFU/lungs, average (A. baumannii ACC01073 [2]; 6 mg/kg/day s.c. q6h, 24 h): 1.26E+09 | Log CFU/lungs, average (bacterial load) (A. baumannii ACC01073 [2]; 6 mg/kg/day s.c. q6h, 24 h): 9.06 | ΔLog CFU/lungs vs A/0h (A. baumannii ACC01073 [2]; 20 mg/kg/day q6h): 1.47 | CFU/lungs, average (A. baumannii ACC01073 [2]; 20 mg/kg/day q6h): 1.49E+09 | Log CFU/lungs, average (bacterial load) (A. baumannii ACC01073 [2]; 20 mg/kg/day q6h): 9.16 | ΔLog CFU/lungs vs A/0h (A. baumannii ACC01073 [2]; 60 mg/kg/day q6h): 1.13 | CFU/lungs, average (A. baumannii ACC01073 [2]; 60 mg/kg/day q6h): 8.46E+08 | Log CFU/lungs, average (bacterial load) (A. baumannii ACC01073 [2]; 60 mg/kg/day q6h): 8.82 | ΔLog CFU/lungs vs A/0h (A. baumannii ACC01073 [2]; 100 mg/kg/day q6h): -0.05 | CFU/lungs, average (A. baumannii ACC01073 [2]; 100 mg/kg/day q6h): 1.38E+08 | Log CFU/lungs, average (bacterial load) (A. baumannii ACC01073 [2]; 100 mg/kg/day q6h): 7.64 | ΔLog CFU/lungs vs A/0h (A. baumannii ACC01073 [2]; 160 mg/kg/day q6h): -1.08 | CFU/lungs, average (A. baumannii ACC01073 [2]; 160 mg/kg/day q6h): 9.40E+06 | Log CFU/lungs, average (bacterial load) (A. baumannii ACC01073 [2]; 160 mg/kg/day q6h): 6.61 | ΔLog CFU/lungs vs A/0h (A. baumannii ACC01073 [2]; 240 mg/kg/day q6h): -2.52 | CFU/lungs, average (A. baumannii ACC01073 [2]; 240 mg/kg/day q6h): 4.14E+05 | Log CFU/lungs, average (bacterial load) (A. baumannii ACC01073 [2]; 240 mg/kg/day q6h): 5.17 | Reduction in CFUs in lungs (A. baumannii ACC01073 [2]; 360 mg per kg per day): > 5 log | ΔLog CFU/lungs vs A/0h (A. baumannii ACC01073 [2]; 360 mg/kg/day q6h): -4.81 | CFU/lungs, average (A. baumannii ACC01073 [2]; 360 mg/kg/day q6h): 9.88E+02 | Log CFU/lungs, average (bacterial load) (A. baumannii ACC01073 [2]; 360 mg/kg/day q6h): 2.88 | aqueous solubility (Aqueous solubility): > 100 mg/mL | Fold MIC increase ([3]; constructed LptF (E249K&I317N)): > 700 | Fold MIC increase ([3]; constructed LptF E249K): 242 | Fold MIC increase ([3]; constructed LptF I317N): 128 | Fold MIC increase ([3]; constructed LptF K320T): 20 | Fold MIC increase ([3]; constructed LptF R322C): 9 | Time–kill outcome (A. baumannii ACC01073 [4]): bactericidal effect above 4× MIC

CN1C(=O)[C@H](CCCCN)NC(=O)[C@H](CCCN)NCc2cccnc2Sc2c(Cl)ccc(Cl)c2CNC(=O)[C@@H]1Cc1c[nH]c2ccccc12 [RO7075573]
MIC (P. aeruginosa; P. aeruginosa PAOD1, porin deficient, PAO1 Δ oprD): >64 µg/mL | MIC (P. aeruginosa; Pseudomonas aeruginosa, P. aeruginosa PAO1, WT, read-out: MIC): > 64 µg/mL | MIC (P. aeruginosa; Pseudomonas aeruginosa, P. aeruginosa PAO397, efflux impaired and porin deficient, read-out: MIC): 64 µg/mL (≈ 86.5 µM) | MIC (E. coli; E. coli 7623, WT, CAMHB, 100% inhibition, n = 1): > 64 µg/mL | MIC (E. coli; E. coli 7623-, efflux impaired, Δ tolC): 32 µg/mL (≈ 43.3 µM) | MIC (E. coli; E. coli R1535, porin deficient, Δ (OmpC; OmpF)): > 64 µg/mL

— article PMC10794144, “A novel antibiotic class targeting the lipopolysaccharide transporter” (Nature, 2024)
